We go through 21 compounds from patent US11673876B2, “Substituted aminobenzyl heteroaryl compounds as EGFR and/or PI3K inhibitors” (Mekanistic Therapeutics LLC, priority 2020, dated 2023).

What all share (type): biochemical
Test [1] addresses EGFR (Homo sapiens (Human), UniProt P00533). Nature of the test: Z'-LYTE / Adapta kinase assay, EGFR. The settings on record: read-out: EGFR % Inh. @ 100 nM. From the text:
(§1) The Z′-LYTE® biochemical assay employs a fluorescence-based, coupled-enzyme format and is based on the differential sensitivity of phosphorylated and non-phosphorylated peptides to proteolytic cleavage (FIG. 6). The peptide substrate is labeled with two fluorophores one at each end—that make up a FRET pair. In the primary reaction, the kinase transfers the gamma-phosphate of ATP to a single tyrosine, serine or threonine residue in a synthetic FRET-peptide. In the secondary reaction, a site-specific protease recognizes and cleaves non-phosphorylated FRET-peptides. Phosphorylation of FRET-peptides suppresses cleavage by the Development Reagent. Cleavage disrupts FRET between the donor (i.e., coumarin) and acceptor (i.e., fluorescein) fluorophores on the FRET-peptide, whereas uncleaved, phosphorylated FRET-peptides maintain FRET. A ratiometric method, which calculates the ratio (the Emission Ratio) of donor emission to acceptor emission after excitation of the donor fluorophore at 400 nm, is used to quantitate reaction progress.
(§2) A significant benefit of this ratiometric method for quantitating reaction progress is the elimination of well-to-well variations in FRET-peptide concentration and signal intensities. As a result, the assay yields very high Z′-factor values (>0.7) at a low percent phosphorylation.
(§3) Both cleaved and uncleaved FRET-peptides contribute to the fluorescence signals and therefore to the Emission Ratio. The extent of phosphorylation of the FRET-peptide can be calculated from the Emission Ratio.
(§4) Enzyme: The ADAPTA universal kinase assay is a homogenous, fluorescent based immunoassay for the detection of ADP. In contrast to ATP depletion assays, the ADAPTA assay is extremely sensitive to ADP formation such that a majority of the signal change occurs in the first 10-20% conversion of ATP to ADP. This makes the ADAPTA universal kinase assay ideally suited for use with low activity kinases.
(§5) The principle of the ADAPTA universal kinase assay is outlined below. The assay itself can be divided into two phases: a kinase reaction phase, and an ADP detection phase. In the kinase reaction phase, all components required for the kinase reaction are added to the well, and the reaction is allowed to incubate for 60 minutes.
(§6) Z′-LYTE® Assay Conditions:
(§7) Test Compounds: The Test Compounds are screened in 1% DMSO (final) in the well. For 10 point titrations, 3-fold serial dilutions are conducted from the starting concentration.
(§8) Peptide/Kinase Mixtures: All Peptide/Kinase Mixtures are diluted to a 2× working concentration in the appropriate Kinase Buffer.
(§9) ATP Solution: All ATP Solutions are diluted to a 4× working concentration in Kinase Buffer (50 mM HEPES pH 7.5, 0.01% BRIJ-35, 10 mM MgCl2, 1 mM EGTA). ATP Km apparent is previously determined using a Z′-LYTE® assay.
(§10) Development Reagent Solution: The Development Reagent is diluted in Development Buffer. […]
(§11) 2.5 μL—4× Test Compound or 100 nL 100× plus 2.4 μL kinase buffer. 2. 5 μL—2× Peptide/Kinase Mixture. 3. 2.5 μL—4× ATP Solution. 4. 30-second plate shake. 5. 60-minute Kinase Reaction incubation at room temperature. 6. 5 μL—Development Reagent Solution. 7. 30-second plate shake. 8. 60-minute Development Reaction incubation at room temperature. 9.

Test [2] concerns the target DNA-PK (Homo sapiens (Human), UniProt P78527). The test is described as follows: Z'-LYTE / Adapta kinase assay, DNA-PK. As to conditions: read-out: DNA-PK % Inh. @ 100 nM.
Excerpt: as §1, §2, §3, §4, §5, §6, §7, §8, §9, §10, §11

Test [3] has as its target PI3Ka (Homo sapiens (Human), UniProt P42336). Nature of the test: Z'-LYTE / Adapta kinase assay, PI3Ka. As to conditions: read-out: PI3Ka % Inh. @ 100 nM.
Excerpt: as §1, §2, §3, §4, §5, §6, §7, §8, §9, §10, §11

Chain of EGFR (P00533 25-1210): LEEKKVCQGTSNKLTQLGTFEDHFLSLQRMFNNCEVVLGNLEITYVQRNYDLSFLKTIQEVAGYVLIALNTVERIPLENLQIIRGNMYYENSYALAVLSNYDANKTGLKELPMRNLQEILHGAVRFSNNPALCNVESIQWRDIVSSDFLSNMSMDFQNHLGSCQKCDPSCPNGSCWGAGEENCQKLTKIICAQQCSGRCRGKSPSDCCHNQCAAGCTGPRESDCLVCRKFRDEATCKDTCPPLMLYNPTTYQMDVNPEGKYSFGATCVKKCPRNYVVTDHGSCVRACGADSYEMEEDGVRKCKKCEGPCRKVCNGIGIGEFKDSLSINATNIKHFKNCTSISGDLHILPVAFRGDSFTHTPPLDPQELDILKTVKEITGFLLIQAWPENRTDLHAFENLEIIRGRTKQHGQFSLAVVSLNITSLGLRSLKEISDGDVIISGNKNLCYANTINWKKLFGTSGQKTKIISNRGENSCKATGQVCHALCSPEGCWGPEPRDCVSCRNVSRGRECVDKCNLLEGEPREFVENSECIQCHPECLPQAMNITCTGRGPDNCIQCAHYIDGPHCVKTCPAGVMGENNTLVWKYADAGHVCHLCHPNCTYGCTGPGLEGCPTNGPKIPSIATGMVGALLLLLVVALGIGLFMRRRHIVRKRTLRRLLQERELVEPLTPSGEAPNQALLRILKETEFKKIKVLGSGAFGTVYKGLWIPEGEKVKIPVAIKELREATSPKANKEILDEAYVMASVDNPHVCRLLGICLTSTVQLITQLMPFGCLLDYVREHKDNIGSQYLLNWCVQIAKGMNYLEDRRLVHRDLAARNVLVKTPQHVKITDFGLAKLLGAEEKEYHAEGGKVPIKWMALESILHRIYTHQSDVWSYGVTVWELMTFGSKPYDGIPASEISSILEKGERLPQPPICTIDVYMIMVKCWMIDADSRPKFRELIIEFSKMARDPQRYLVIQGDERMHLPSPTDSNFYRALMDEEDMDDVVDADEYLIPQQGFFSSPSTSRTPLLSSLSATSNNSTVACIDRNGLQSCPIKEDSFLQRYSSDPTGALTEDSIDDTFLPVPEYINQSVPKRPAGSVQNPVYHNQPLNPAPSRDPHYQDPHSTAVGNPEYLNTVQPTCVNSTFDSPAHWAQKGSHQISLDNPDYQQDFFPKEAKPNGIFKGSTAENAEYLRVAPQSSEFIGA
Chain of PI3Ka (P42336 whole entry): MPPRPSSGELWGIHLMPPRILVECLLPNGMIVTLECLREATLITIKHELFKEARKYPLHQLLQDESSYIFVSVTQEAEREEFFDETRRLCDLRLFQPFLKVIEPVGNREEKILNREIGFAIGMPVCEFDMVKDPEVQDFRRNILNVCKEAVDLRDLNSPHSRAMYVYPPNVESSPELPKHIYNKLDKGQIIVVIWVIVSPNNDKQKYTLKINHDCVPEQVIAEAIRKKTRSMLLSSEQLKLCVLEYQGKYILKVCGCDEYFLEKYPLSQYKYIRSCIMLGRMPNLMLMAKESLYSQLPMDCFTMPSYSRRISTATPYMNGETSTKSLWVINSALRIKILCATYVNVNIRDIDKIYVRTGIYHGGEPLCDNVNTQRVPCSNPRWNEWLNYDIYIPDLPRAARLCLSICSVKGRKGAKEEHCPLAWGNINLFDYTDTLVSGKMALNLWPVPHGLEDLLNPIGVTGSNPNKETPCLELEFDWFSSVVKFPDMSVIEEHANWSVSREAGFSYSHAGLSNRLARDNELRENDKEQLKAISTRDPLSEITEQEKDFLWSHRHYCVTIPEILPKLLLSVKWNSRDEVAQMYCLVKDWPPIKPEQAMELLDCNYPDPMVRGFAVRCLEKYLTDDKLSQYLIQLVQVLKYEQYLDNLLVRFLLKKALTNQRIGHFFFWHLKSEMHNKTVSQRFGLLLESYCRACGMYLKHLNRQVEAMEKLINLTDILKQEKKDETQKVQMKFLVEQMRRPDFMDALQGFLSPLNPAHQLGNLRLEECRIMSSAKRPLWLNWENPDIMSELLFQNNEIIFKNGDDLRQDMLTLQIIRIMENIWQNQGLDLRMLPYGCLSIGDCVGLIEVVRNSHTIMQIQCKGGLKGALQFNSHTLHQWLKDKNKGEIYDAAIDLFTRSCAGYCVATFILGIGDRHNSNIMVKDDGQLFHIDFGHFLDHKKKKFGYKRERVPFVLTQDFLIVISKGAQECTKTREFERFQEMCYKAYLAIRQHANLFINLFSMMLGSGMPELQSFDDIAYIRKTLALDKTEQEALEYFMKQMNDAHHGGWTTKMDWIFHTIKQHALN
Chain of PI3Ka (P27986 whole entry partner): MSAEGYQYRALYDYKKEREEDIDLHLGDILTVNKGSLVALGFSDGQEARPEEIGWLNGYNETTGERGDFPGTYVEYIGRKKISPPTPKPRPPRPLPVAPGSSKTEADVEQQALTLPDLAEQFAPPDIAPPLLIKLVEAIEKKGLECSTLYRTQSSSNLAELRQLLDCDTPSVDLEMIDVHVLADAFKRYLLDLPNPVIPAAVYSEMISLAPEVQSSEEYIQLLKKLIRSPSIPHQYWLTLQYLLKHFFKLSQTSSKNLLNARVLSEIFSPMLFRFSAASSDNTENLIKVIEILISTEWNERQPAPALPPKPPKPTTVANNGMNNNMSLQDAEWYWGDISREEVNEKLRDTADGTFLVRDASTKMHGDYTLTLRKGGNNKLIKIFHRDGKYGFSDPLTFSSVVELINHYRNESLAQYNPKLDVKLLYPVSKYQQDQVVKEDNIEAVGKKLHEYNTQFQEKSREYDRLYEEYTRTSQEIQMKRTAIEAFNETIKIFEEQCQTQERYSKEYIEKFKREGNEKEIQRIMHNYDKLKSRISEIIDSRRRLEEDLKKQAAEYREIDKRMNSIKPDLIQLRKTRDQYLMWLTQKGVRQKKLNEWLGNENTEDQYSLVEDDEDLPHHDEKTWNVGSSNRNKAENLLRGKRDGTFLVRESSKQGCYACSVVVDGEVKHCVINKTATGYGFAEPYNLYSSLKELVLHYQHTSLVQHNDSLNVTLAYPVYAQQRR

Consider `CC(Nc1ncnc2ccc(-c3cnc4[nH]ncc4c3)cc12)c1ccccc1` (centres unmarked) [Compound 8, N-(1-phenylethyl)-6-(1H-pyrazolo[3,4-b]pyridin-5-yl)quinazolin-4-amine], for which the results for the inhibition at 0.1 µM in test [1], in test [2] and in test [3] were 80 to 90%, 10 to 80% and 10 to 80%, respectively.
As for `Cc1nc2cc(-c3ccc4ncnc(NC(C)c5ccccc5)c4c3)cnc2[nH]1` (centres unmarked) [Compound 10, 6-(2-methyl-1H-imidazo[4,5-b]pyridin-6-yl)-N-(1-phenylethyl)quinazolin-4-amine], the inhibition at 0.1 µM in test [1] fell in the range of 80 to 90%; in test [2], 10 to 80%; in test [3], 10 to 80%.
`CC(Nc1ncnc2ccc(-c3cncc(C(C)(C)O)c3)cc12)c1ccccc1` (centres unmarked) [Compound 21, 2-[5-[4-(1-phenylethylamino)quinazolin-6-yl]-3-pyridyl]propan-2-ol]: the inhibition at 0.1 µM in test [1] lay in the range of 80 to 90%; in test [2], 10 to 80%; in test [3] it was 10 to 80%.
Turning to `CC(Nc1ncnc2ccc(-c3cnc4[nH]nnc4c3)cc12)c1ccccc1` (centres unmarked) [Compound 24, N-(1-phenylethyl)-6-(3H-triazolo[4,5-b]pyridin-6-yl)quinazolin-4-amine], the inhibition at 0.1 µM in test [1] was greater than 90%; in test [2], 10 to 80%; in test [3] it was 10 to 80%.
Consider `CC(Nc1ncnc2ccc(-c3cnc4cnn(C)c4c3)cc12)c1ccccc1` (centres unmarked) [Compound 27, 6-(1-methylpyrazolo[4,3-b]pyridin-6-yl)-N-(1-phenylethyl)quinazolin-4-amine], for which the inhibition at 0.1 µM in test [1] was 10 to 80%; in test [2], 10 to 80%; in test [3], less than 10%.
As to `CC(Nc1ncnc2ccc(-c3cnc(N)c(S(C)(=O)=O)c3)cc12)c1ccccc1` (centres unmarked) [Compound 31, 6-(6-amino-5-(methylsulfonyl)pyridin-3-yl)-N-(1-phenylethyl)quinazolin-4-amine], the values for the inhibition at 0.1 µM in test [1], in test [2] and in test [3] were greater than 90%, greater than 90% and 80 to 90%, respectively.
For `CC(Nc1ncnc2ccc(-c3cnc4cncn4c3)cc12)c1ccccc1` (centres unmarked) [Compound 34, 6-(imidazo[1,5-a]pyrimidin-3-yl)-N-(1-phenylethyl)quinazolin-4-amine], the inhibition at 0.1 µM in test [1] is greater than 90%; in test [2] it was 80 to 90%; in test [3], greater than 90%.
For `CC(Nc1ncnc2ccc(-c3cnc(N)c(C(=O)N(C)C)c3)cc12)c1ccccc1` (centres unmarked) [Compound 36, 2-amino-N, N-dimethyl-5-[4-(1-phenylethylamino)quinazolin-6-yl] pyridine-3-carboxamide], the inhibition at 0.1 µM in test [1], in test [2] and in test [3] was 10 to 80% throughout.
With `CC(Nc1ncnc2ccc(-c3ccc4oc(N)nc4c3)cc12)c1ccccc1` (centres unmarked) [Compound 41, 5-[4-(1-phenylethylamino)quinazolin-6-yl]-1,3-benzoxazol-2-amine], the inhibition at 0.1 µM in test [1] is greater than 90%; in test [2] it was less than 10%; in test [3] it was 10 to 80%.
As to `C[C@@H](Nc1c(C#N)cnc2ccc(-c3cnc4[nH]ncc4c3)cc12)c1ccccc1` [Compound 54R, 4-[[(1R)-1-phenylethyl]amino]-6-(1H-pyrazolo [3,4-b]pyridin-5-yl) quinoline-3-carbonitrile], the inhibition at 0.1 µM in test [1] lay in the range of 80 to 90%; in test [2] it was 10 to 80%; in test [3], 10 to 80%.
For `CC(Nc1c(C#N)cnc2ccc(-c3cnc4[nH]ccc4c3)cc12)c1ccccc1` (centres unmarked) [Compound 55, 4-(1-phenylethylamino)-6-(1H-pyrrolo [2,3-b]pyridin-5-yl) quinoline-3-carbonitrile], the results for the inhibition at 0.1 µM in test [1], in test [2] and in test [3] were 10 to 80%, 10 to 80% and less than 10%, respectively.
In the case of `Cc1nc2cc(-c3ccc4ncc(C#N)c(NC(C)c5ccccc5)c4c3)cnc2[nH]1` (centres unmarked) [Compound 56, 6-(2-methyl-3H-imidazo[4,5-b]pyridin-6-yl)-4-(1-phenylethylamino) quinoline-3-carbonitrile], the inhibition at 0.1 µM in test [1], in test [2] and in test [3] was 10 to 80% throughout.
For the compound `CC(Nc1c(C#N)cnc2ccc(-c3cncc(O)c3)cc12)c1ccccc1` (centres unmarked) [Compound 61, 6-(5-hydroxy-3-pyridyl)-4-(1-phenylethylamino) quinoline-3-carbonitrile], the inhibition at 0.1 µM in test [1] was 80 to 90%; in test [2], 10 to 80%; in test [3], less than 10%.
Taken in the same sequence, the figures for `CC(Nc1c(C#N)cnc2ccc(-c3cnc(N)c(C(F)(F)F)c3)cc12)c1ccccc1` (centres unmarked) [Compound 62, 6-(6-amino-5-(trifluoromethyl)pyridin-3-yl)-4-((1-phenylethyl)amino)quinoline-3-carbonitrile] were 10 to 80%, 10 to 80% and less than 10%.
For `CC(Nc1c(C#N)cnc2ccc(-c3cncc(C#N)c3)cc12)c1ccccc1` (centres unmarked) [Compound 64, 6-(5-cyano-3-pyridyl)-4-(1-phenylethylamino) quinoline-3-carbonitrile], the inhibition at 0.1 µM in test [1], in test [2] and in test [3] was 10 to 80% in each case.
As for `CC(Nc1c(C#N)cnc2ccc(-c3cnc(N)c(C#N)c3)cc12)c1ccccc1` (centres unmarked) [Compound 65, 6-(6-amino-5-cyano-3-pyridyl)-4-(1-phenylethylamino) quinoline-3-carbonitrile], the figures for the inhibition at 0.1 µM in test [1], in test [2] and in test [3] were 80 to 90%, 10 to 80% and 10 to 80%, respectively.
Regarding `CC(Nc1c(C#N)cnc2ccc(-c3cncc(C(C)(C)O)c3)cc12)c1ccccc1` (centres unmarked) [Compound 67, 6-[5-(1-hydroxy-1-methyl-ethyl)-3-pyridyl]-4-(1-phenylethylamino) quinoline-3-carbonitrile], the inhibition at 0.1 µM in test [1], in test [2] and in test [3] was 10 to 80% each time.
As to `COc1cc(-c2ccc3ncc(C#N)c(NC(C)c4ccccc4)c3c2)cnc1OC` (centres unmarked) [Compound 68, 6-(5,6-dimethoxy-3-pyridyl)-4-(1-phenylethylamino)quinoline-3-carbonitrile], the inhibition at 0.1 µM in test [1] was 80 to 90%; in test [2], 10 to 80%; in test [3] it was 10 to 80%.
Turning to `CC(Nc1c(C#N)cnc2ccc(-c3cnc4[nH]nnc4c3)cc12)c1ccccc1` (centres unmarked) [Compound 70, 4-(1-phenylethylamino)-6-(3H-triazolo [4,5-b]pyridin-6-yl) quinoline-3-carbonitrile], the inhibition at 0.1 µM in test [1] lay in the range of 80 to 90%; in test [2] it was 10 to 80%; in test [3] it was 10 to 80%.
Turning to `CC(Nc1c(C#N)cnc2ccc(-c3cnc4cnn(C)c4c3)cc12)c1ccccc1` (centres unmarked) [Compound 73, 6-(1-methylpyrazolo [4,3-b]pyridin-6-yl)-4-(1-phenylethylamino) quinoline-3-carbonitrile], the results for the inhibition at 0.1 µM in test [1], in test [2] and in test [3] were 10 to 80%, less than 10% and 10 to 80%, respectively.
`CS(=O)(=O)Nc1cc(-c2ccc3ncc(C#N)c(NC4c5ccccc5CC4O)c3c2)cnc1Cl` (centres unmarked) [Compound 103, N-[2-chloro-5-[3-cyano-4-[(2-hydroxyindan-1-yl)amino]-6-quinolyl]-3-pyridyl]methanesulfonamide]: the inhibition at 0.1 µM in test [1] was less than 10%; in test [2], greater than 90%.
